One data set concerns C2C12 myoblast cells. As to conditions: day four of compound treatment.
Another data set relates to C2C12 myoblasts cells. Conditions: at the effective concentration (0.5-5 μM). As to the method: After four days of treatment with reversine, the compound was removed and cells were then grown in osteogenic differentiation medium (ODM) or adipogenic differentiation medium (ADM).

On to `c1nc2nc(Nc3ccc(N4CCOCC4)cc3)nc(NC3CCCCC3)c2[nH]1` [Compound A, 2-(4-Morpholinoanilino)-6-cyclohexylamino-purine], for which the myotube formation entry with C2C12 myoblast cells (5 μM) is recorded as “completely inhibited”. Further, the “myogenic specific markers such as MyoD and myosin” value with C2C12 myoblast cells is “began to disappear”. Moreover, the cell death result in the data set on C2C12 myoblasts cells is “no significant cell death”.

Source of the values: patent US7951592B2, “Compositions and methods for inducing cell dedifferentiation” (The Scripps Research Institute, priority 2003, dated 2011).
